Laboratory results: US20240279710A1, “FLUORESCENT PROBES” (TOHOKU TECHNO ARCH CO., LTD., priority 2021, published 2024)

Columns and labels:
[1] = target: T1, calpain-1 from human erythrocytes (Homo sapiens, UniProt P07384); assay: Fluorescence assay with calpain-1; assay type: biochemical; conditions: 10 μM probe, 17.4 U/mL calpain-1, 5 mM CaCl2, 37° C., FIG. 4
T1 construct: calpain-1 from human erythrocytes; purchased Merck Millipore 208713; host or cells: human erythrocytes (natural source)
T1 sequence (P07384 1-714): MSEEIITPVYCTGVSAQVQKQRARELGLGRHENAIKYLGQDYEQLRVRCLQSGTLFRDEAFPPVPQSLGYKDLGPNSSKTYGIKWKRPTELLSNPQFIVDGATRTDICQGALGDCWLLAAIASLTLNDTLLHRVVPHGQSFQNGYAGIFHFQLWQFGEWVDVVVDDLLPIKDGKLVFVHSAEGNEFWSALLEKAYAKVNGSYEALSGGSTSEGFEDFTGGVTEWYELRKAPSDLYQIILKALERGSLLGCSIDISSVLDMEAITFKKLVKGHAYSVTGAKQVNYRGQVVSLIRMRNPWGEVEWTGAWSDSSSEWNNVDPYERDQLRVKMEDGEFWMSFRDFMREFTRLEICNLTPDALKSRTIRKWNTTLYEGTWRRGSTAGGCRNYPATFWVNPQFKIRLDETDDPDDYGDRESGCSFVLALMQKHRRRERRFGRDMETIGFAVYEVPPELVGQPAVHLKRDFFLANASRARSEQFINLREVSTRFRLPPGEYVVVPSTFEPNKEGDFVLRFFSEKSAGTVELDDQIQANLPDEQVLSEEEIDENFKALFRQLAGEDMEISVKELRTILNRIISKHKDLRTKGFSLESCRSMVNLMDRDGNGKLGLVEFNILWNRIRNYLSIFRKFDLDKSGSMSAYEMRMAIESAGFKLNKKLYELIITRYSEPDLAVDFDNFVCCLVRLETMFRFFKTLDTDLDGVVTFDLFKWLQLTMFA
T1 sequence (P04632 1-268 partner): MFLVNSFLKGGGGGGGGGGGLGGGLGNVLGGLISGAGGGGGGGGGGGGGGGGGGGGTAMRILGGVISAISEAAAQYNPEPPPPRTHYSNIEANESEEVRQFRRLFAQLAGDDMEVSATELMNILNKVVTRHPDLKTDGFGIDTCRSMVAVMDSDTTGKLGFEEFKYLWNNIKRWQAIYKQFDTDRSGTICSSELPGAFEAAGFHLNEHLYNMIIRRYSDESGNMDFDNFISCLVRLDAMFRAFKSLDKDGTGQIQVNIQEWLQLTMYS
Procedure: The fluorescence assays of Compound 19 and Compound 16 with time were performed. Specifically, 17.4 U/mL of calpain-1 and 5 mM CaCl2 were added to a 50 mM TRIS buffer (pH: 7.4, 2 mM EGTA, 2 mM DTE) containing 10 μM of each of the synthesized fluorescent probes to perform an enzyme reaction at 37° C. Each of the compounds to which calpain-1 and CaCl2 were not added was similarly subjected as a negative control to the measurement.
The fluorescence assays of Compounds 16 to 36 were similarly performed. 50 Units per milliliter (Compounds 16 and 19 to 25) or 17.4 U/mL (Compounds 16 to 18 and 26 to 36) of calpain-1 and 5 mM CaCl2 were added to a 50 mM TRIS buffer (pH: 7.4, 2 mM EGTA, 2 mM DTE) containing 10 μM of each of the synthesized fluorescent probes to perform an enzyme reaction at 37° C.
Next, similar fluorescence assays of Compounds 37, 42, 45, 48, 51, 53, 55, 57, and 59 with calpain-1 were performed. Specifically, 17.4 U/mL of calpain-1 and 5 mM CaCl2 were added to a 50 mM TRIS buffer (pH: 7.4, 2 mM EGTA, 2 mM DTE) containing 10 μM of each of the synthesized fluorescent probes to perform an enzyme reaction at 37° C. Each of the compounds to which calpain-1 was not added was used as a control.
To evaluate an influence of a R^12-L-O— group on the reactivity of each of compounds having the same amino acids with calpain-1, the fluorescence assays of Compounds 37 to 66 with calpain-1 were performed in accordance with the above-mentioned method. Specifically, 17.4 U/mL of calpain-1 and 5 mM CaCl2 were added to a 50 mM TRIS buffer (pH: 7.4, 2 mM EGTA, 2 mM DTE) containing 10 μM of each of the synthesized fluorescent probes to perform an enzyme reaction at 37° C., followed by the measurement of an increase in fluorescence intensity of each of the compounds 10 minutes after the addition of calpain-1.

calpain [2] = assay: Rabbit NMDA injury model, ocular fundus imaging; assay type: in vivo; conditions: for staining of nerve cells with HMRG in ocular fundus: 30, 45 and 60 minutes after probe into the eye (Compound 19 18.3 μM 19 μL; Compound 16 20 μM 19 μl or 38 μl)
Procedure: Black Dutch rabbits were each subjected to general anesthesia with a mixed liquid of ketamine and xylazine. N-Methyl-D-aspartate (NMDA) (12 mM, 50 μL) or PBS was administered into an eye of the rabbit. 9 Hours after that, the rabbit was anesthetized with a mixed liquid of ketamine and xylazine again, and Compound 19 (18.3 μM, 19 μL), Compound 16 (20 μM, 19 μl), or Compound 16 (20 μM, 38 μl) was administered into the eye. Images of an ocular fundus were taken with Mirante (a confocal scanning diode laser ophthalmoscope manufactured by Nidek Co., Ltd.) before the administration of each of the compounds and after the lapse of a predetermined time from the administration.

calpain [3] = assay: Rat NMDA injury model, ocular fundus imaging; assay type: in vivo; conditions: for staining of nerve cells with HMRG in ocular fundus: probe 18.3 μM, 20 minutes after administration; for number of HMRG-positive cells in ocular fundus: FIG. 16
Procedure: Black Brown-Norway rats were each subjected to general anesthesia with isoflurane. PBS or N-methyl-D-aspartate (NMDA) (10 mM, 2 μL) was administered into an eye of the rat. 6 Hours after that, the rat was anesthetized with a mixed liquid of ketamine and xylazine again, and Compound 19 (18.3 μM, 3 μL) was administered into the eye. Images of an ocular fundus were taken with F-10 (a confocal biomicroscope manufactured by Nidek Co., Ltd.) before the administration of Compound 19 and 20 minutes after the administration.

[4] = rabbits administered NMDA, Compound 19 18.3 μM 19 μL, FIG. 23

**Q.** Which results are given for `COCC(=O)N[C@@H](CC(C)C)C(=O)N[C@@H](CCSC)C(=O)Nc1ccc2c(c1)Oc1cc(N)ccc1C21OCc2ccccc21` (stereo partly drawn) [Compound 19]?
**A.** change in fluorescence intensity with time by calpain-1 ([1]; excitation 475 nm, fluorescence 500-550 nm): functioned as a fluorescent probe for calpain-1; reactivity with calpain-1 compared with Compound 16 (fluorescence with time) [1]: further improved in reactivity with calpain-1; number of HMRG-positive cells in PBS rabbits compared to NMDA rabbits (calpain [2]; Compound 19 (19 μL) and Compound 16 (38 μl), FIG. 23): significantly reduced; reactivity in relation to dose, compared with Compound 16 (calpain [2]; rabbit NMDA injury model, administration into the eye): satisfactory reactivity even when used in a dose smaller than that of Compound 16; staining of nerve cells with HMRG in ocular fundus (calpain [2]; rabbits administered NMDA (12 mM, 50 μL)): many nerve cells were clearly stained with HMRG; number of HMRG-positive cells compared to Compound 16 (19 μl) (calpain [2]; [4]): significantly increased; number of HMRG-positive cells compared to Compound 16 (38 μl) (calpain [2]; [4]): tended to increase; staining of nerve cells with HMRG in ocular fundus (calpain [2]; rabbits administered PBS): substantially no staining of the nerve cells with HMRG; staining of nerve cells with HMRG in ocular fundus (calpain [3]; rats administered NMDA (10 mM, 2 μL), 3 μL into the eye 6 hours later): many of the nerve cells were clearly stained; number of HMRG-positive cells in ocular fundus (calpain [3]; rats administered NMDA): significant increase; number of HMRG-positive cells in ocular fundus (calpain [3]; rats administered PBS): extremely small; staining of nerve cells with HMRG in ocular fundus (calpain [3]; rats administered PBS, 3 μL into the eye): substantially no nerve cells are stained
